Measured values as given in patent publication US9260486B2 (The University of Vermont and State Agricultural College, priority 2012, dated 2016).
Values belong to the compound of their own block, whether it stands above or below them. Residues, ends and D or L forms follow the SMILES beside them.

How the values were obtained:
PKG Iα [1] = biological target: T1, PKG Iα (Bos taurus, UniProt P00516); conditions: Butt et al., 1995; cited from earlier work
T1 construct: made in house
T1 sequence (P00516 1-671): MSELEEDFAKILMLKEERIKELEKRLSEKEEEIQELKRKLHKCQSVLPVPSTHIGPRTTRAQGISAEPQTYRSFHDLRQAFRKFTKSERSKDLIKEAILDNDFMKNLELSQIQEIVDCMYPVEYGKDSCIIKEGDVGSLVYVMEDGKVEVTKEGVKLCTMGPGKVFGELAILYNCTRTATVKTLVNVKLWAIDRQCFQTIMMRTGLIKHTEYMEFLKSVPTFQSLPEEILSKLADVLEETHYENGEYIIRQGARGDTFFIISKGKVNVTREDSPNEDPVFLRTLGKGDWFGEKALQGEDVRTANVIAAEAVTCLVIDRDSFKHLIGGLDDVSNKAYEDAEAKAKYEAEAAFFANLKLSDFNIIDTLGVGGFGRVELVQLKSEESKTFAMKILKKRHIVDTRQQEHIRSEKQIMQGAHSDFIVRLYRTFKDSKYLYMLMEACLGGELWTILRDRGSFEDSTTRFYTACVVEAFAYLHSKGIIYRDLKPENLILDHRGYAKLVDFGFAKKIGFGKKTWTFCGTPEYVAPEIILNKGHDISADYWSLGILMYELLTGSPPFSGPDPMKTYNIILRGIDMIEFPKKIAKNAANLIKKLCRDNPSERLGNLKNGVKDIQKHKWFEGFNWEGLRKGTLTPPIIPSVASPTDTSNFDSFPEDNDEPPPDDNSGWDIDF

PKG Iα [2] = biological target: T1, PKG Iα; assay: 32P-incorporation assay, activation of PKG Iα by SW peptides; assay type: biochemical
Description: Starting with the 29-mer peptide (329-358), covering the full length of the switch helix, an array of peptide derivatives were synthesized to study the contributions from different segments of the SW helix peptide towards the functional phenotype of PKG Iα. Circular dichroism spectroscopy confirmed that the 29-mer SW peptide adopted a helical secondary structure. […] The activity of this short peptide is surprising. To activate the kinase, this non-helical 8-mer peptide first has to adopt the active helical conformation to activate PKG. However, this finding provides critical support in favor that the confined knob/nest interaction site may serve as a novel target site for non-cyclic nucleotide driven activation of PKG.
The isolation of the SW independent from the kinase allows us to discretely probe the nest in future studies using native and non-native amino acids. Moreover, the use of the SW: 329-358 allows us to answer more fundamental questions about the nature of the regulatory and catalytic domains and the communication between the B-site and the nest. […] The structure of this inhibitor contains a β-phenyl-1,N^2-etheno group attached to the pyrimidine ring. We hypothesized previously, based upon structural observations, that the presence of this phenyl group in the syn orientation effectively blocks PBC closure and reduces the potency of the SW:329-358 in a dose-dependent manner.
Determination of activation constants was performed using a [γ-^32P]-ATP transfer assay as previously reported (Ruth et al., 1991; Tegge et al., 1995). […] Aliquots, spotted on P81 Whatman paper were subjected to scintillation counting. All experiments were performed in the presence of the PKA-specific inhibitor, PKI^5-24 (70 nM) to suppress endogenous PKA activity.

KCa1.1 channels = assay: Inside-out patch clamp, open probability of single KCa1.1 channels in membrane patches from VSM cells reconstituted with recombinant PKG; assay type: cell-based; conditions: rat posterior cerebral artery VSM cells, with PKG Iα and ATP
Description: FIG. 4: SW:329-358 activates single KCa channels in inside-out membrane patches excised from cerebral artery myocytes.
Once we had supporting evidence that molecules carrying the knob-type ligand conformation were capable of activating PKG we set out to determine if this novel mechanism of kinase activation was functionally relevant. The high conductance calcium-activated potassium channel KCa1.1 is a well-established intracellular target of […] in vascular smooth muscle (VSM) cells. Using inside-out patch clamp configurations from freshly dissociated VSM cells from rat posterior cerebral arteries, we measured the changes of open probability (NPO) of single KCa1.1 channels in response to PKG stimulation in membrane patches excised from freshly-dissociated vascular smooth muscle cells (FIG. 4).

Compound: O=c1c2nc(Br)n([C@@H]3O[C@@H]4CO[P@@](O)(=S)O[C@H]4[C@H]3O)c2nc2[nH]c(-c3ccccc3)cn12 [Rp-PET, (RP)-8-Br-PET-cGMPS]
affinity for PKG Iα regulatory domain binding sites relative to cGMP (PKG Iα [1]): higher affinity for the PHG Iα regulatory domain binding sites than cGMP
effect of Rp-PET on activation constant of PKG Iα by SW:329-358 (PKG Iα [2]; Rp-PET titrated into activation reactions): linear response of the activation constant to the amount of Rp-PET titrated

Compound: CC(C)C[C@H](NC(=O)[C@H](CC(N)=O)NC(=O)[C@H](C)NC(=O)[C@H](Cc1ccccc1)NC(=O)[C@H](Cc1ccccc1)NC(=O)[C@H](C)NC(=O)[C@H](C)N)C(=O)N[C@@H](CCCCN)C(=O)O [SW:348-355] (H-AAFFANLK-OH; N-terminus and C-terminus assumed)
Emax (PKG Iα [2]; read-out: activation relative to activation associated with cGMP, 8-mer knob peptide): 30%

Compound: Nc1nc2c(ncn2[C@@H]2O[C@@H]3COP(=O)(O)O[C@H]3[C@H]2O)c(=O)[nH]1 [cGMP]
KCa1.1 channel open probability (NPO) (KCa1.1 channels): significantly increased

activation of PKG Iα (PKG Iα [2]; under cGMP priming conditions): completely inactive
Compound: SW:329-349: SW-peptide derivative with additional removal of the knob residues (DVSNKAYEDAEAKAKYEAEAA)
